Reference: patent US7439077B2, “Coumarin analog compounds for safer anticoagulant treatment” (New Century Pharmaceuticals, Inc., priority 2002, dated 2008)
Values joined by “and” are separate entries in the source; they are usually repeats but may differ in a detail not shown here. Identical values can stand only once. Like-named read-outs stand apart in the source and are kept apart here.

Tests used:
HSA = HSA (Homo sapiens, UniProt P02768); experiment: BIACORE binding to HSA; details: Protein: HSA; for Binding Sites: number of binding sites
Source text: (§1) In the following examples, Biacore and Animal Study data were obtained with regard to some of the compounds of the present invention, namely NCP 014, 023, 023a.

HSA Fragment [1] = molecular target: T1, HSA Fragment (Homo sapiens, UniProt P02768); experiment: BIACORE binding to HSA Fragment; details: Protein: HSA Fragment; number of binding sites
T1 construct: HSA Fragment
Source text: as §1

HSA Fragment [2] = molecular target: T2, HSA Fragment (Homo sapiens, UniProt P02768, form not given); experiment: BIACORE binding to HSA Fragment; details: human, HSA fragment, Protein: HSA Fragment; read-out: KD2
T2 construct: HSA Fragment
Source text: as §1

Rat Albumin = Rat Albumin (Rattus norvegicus, UniProt P02770); experiment: BIACORE binding to Rat Albumin; details: Protein: Rat Albumin; for Binding Sites: number of binding sites; for Kd: read-out: KD1
Source text: as §1

human serum albumin = human serum albumin (Homo sapiens, UniProt P02768); experiment: Crystallographic determination of albumin binding site; details: serum albumin binding region observed
Sequence of human serum albumin (P02768 25-609): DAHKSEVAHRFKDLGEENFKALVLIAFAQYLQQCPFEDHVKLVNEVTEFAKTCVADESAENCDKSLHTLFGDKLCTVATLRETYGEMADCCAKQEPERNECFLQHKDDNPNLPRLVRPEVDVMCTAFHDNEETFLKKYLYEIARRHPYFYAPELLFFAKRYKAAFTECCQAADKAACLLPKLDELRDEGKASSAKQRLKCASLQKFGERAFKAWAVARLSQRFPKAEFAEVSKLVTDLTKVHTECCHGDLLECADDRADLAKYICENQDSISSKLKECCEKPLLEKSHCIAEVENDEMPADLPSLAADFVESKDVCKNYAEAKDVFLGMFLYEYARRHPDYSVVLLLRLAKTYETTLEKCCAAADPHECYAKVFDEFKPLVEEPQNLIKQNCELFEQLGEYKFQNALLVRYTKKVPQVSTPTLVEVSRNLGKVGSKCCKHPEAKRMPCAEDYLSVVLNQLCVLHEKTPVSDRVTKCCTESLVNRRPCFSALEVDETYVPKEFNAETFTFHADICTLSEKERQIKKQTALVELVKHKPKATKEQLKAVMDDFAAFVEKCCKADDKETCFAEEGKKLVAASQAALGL

Sequence of Rat Albumin (P02770 25-608): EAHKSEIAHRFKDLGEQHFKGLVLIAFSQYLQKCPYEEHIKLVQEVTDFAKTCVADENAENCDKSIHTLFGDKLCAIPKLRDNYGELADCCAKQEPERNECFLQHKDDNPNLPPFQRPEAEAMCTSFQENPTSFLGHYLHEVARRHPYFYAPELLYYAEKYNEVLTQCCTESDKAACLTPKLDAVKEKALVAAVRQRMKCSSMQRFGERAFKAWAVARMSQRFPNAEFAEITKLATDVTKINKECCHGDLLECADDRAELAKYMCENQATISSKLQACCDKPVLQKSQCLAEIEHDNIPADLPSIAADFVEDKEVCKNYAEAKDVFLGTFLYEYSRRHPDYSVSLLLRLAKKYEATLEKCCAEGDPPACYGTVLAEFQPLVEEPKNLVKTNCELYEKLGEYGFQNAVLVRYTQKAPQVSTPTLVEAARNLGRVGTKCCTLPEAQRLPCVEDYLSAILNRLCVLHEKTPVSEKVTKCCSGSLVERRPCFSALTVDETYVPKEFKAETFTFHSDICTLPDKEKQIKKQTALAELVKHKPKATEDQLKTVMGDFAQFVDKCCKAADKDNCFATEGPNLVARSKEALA
T2 sequence (P02768 whole entry, the tested form may be a part): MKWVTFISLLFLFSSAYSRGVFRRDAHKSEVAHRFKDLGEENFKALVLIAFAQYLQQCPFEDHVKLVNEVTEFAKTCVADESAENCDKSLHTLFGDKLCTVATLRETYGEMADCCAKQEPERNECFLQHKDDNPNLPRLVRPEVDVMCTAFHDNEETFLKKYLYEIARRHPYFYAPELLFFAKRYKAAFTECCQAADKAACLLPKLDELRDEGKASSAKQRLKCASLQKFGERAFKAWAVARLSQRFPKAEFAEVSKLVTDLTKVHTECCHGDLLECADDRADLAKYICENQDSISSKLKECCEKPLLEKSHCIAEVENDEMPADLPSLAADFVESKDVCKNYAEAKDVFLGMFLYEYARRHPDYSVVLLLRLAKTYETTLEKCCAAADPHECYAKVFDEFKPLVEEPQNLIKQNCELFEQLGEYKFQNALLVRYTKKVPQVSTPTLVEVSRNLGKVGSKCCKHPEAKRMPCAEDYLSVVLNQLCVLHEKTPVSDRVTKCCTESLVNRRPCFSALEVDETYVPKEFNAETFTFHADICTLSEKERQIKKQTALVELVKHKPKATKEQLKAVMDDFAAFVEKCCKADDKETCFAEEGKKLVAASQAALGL
Sequence of HSA (P02768 25-609): as the sequence (P02768 25-609) above
T1 sequence (P02768 whole entry, the tested form may be a part): as the sequence (P02768 whole entry, the tested form may be a part) above

Row | Compound | Binding Sites (HSA) | Kd (HSA; read-out: KD1) | Kd (HSA; human, HSA (human serum albumin), read-out: KD2) | Binding Sites (HSA Fragment [1]) | Kd (HSA Fragment [2]) | Binding Sites (Rat Albumin) | Kd (Rat Albumin) | albumin binding site (location) (human serum albumin) | Kd (HSA; read-out: KD2)
1 | CCCCCCCCC(CC(C)=O)c1c(O)c2ccccc2oc1=O (stereo not shown) [NCP 014] | 2 and 1 | 0.7 µM and 0.8 µM and 4.6 µM and 6.5 µM | 130 µM | 2 and 1 | 97 µM | 2 | 4.6 µM | bind at the IB binding site, and in addition in the IIA binding site, but at a location different than the major site wherein sodium warfarin binds to albumin | –
2 | CC(=O)CC(Cc1ccccc1)c1c(O)c2ccccc2oc1=O (stereo not shown) [NCP 023] | 2 and 1 | – | – | – | 220 µM | – | 85 µM | bind at the IB site of serum albumin unique from the IB endogenous long-chain fatty acid site | 112 µM and 160 µM
3 | CC(=O)CC(Cc1ccc(Cl)cc1)c1c(O)c2ccccc2oc1=O (stereo not shown) [NCP 023a] | 1 and 2 | – | – | – | 50 µM | 2 | 11.8 µM | bind at the IB site of serum albumin unique from the IB endogenous long-chain fatty acid site | 40 µM
